The supplement of paper PMC4862054

Assays:
Conditions in all cases: incubation time: 72 h
CAL-51 [1] = assay: normalised response (% of control), CellTiter-Glo; higher = more viable cells (100 = DMSO, 0 = benzethonium chloride kill control)
How it was run: (§1)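 In 384-well plates holding compound at 5 concentrations in 10-fold steps over a 10,000-fold range specific to each compound, breast cancer cell lines were seeded as 20 µl suspension and incubated 72 h. CellTox Green fluorescence was measured at 485/520 nm, after which CellTiter-Glo luminescence was measured following 10 min at room temperature. Plate signals were normalised to 0.1 % DMSO (100) and a positive kill control (0), and each value is the normalised signal at a single concentration.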

CAL-85-1 [2] = assay: as above
How it was run: as §1

HCC1143 [3] = assay: as above
How it was run: as §1

MDA-MB-231 [4] = assay: as above
How it was run: as §1

CAL-120 [5] = assay: as above
How it was run: as §1

MDA-MB-436 [6] = assay: as above
How it was run: as §1

MDA-MB-453 [7] = assay: as above
How it was run: as §1

HCC1937 [8] = assay: as above
How it was run: as §1

HDQ-P1 [9] = assay: as above
How it was run: as §1

MFM-223 [10] = assay: as above
How it was run: as §1

DU-4475 [11] = assay: as above
How it was run: as §1

CAL-148 [12] = assay: as above
How it was run: as §1

SK-BR-3 = assay: as above
How it was run: as §1

HCC1599 [13] = assay: as above
How it was run: as §1

BT-549 [14] = assay: as above
How it was run: as §1

MDA-MB-468 [15] = assay: as above
How it was run: as §1

BT-474 [16] = assay: as above
How it was run: as §1

MCF-10A [17] = assay: as above
How it was run: as §1

Hs578T [18] = assay: as above
How it was run: as §1

CAL-51 [19] = assay: normalised response (% of control), CellTox Green; higher = less cell death (100 = DMSO, 0 = benzethonium chloride kill control)
How it was run: as §1

CAL-85-1 [20] = assay: as above
How it was run: as §1

HCC1143 [21] = assay: as above
How it was run: as §1

MDA-MB-231 [22] = assay: as above
How it was run: as §1

CAL-120 [23] = assay: as above
How it was run: as §1

MDA-MB-436 [24] = assay: as above
How it was run: as §1

MDA-MB-453 [25] = assay: as above
How it was run: as §1

HCC1937 [26] = assay: as above
How it was run: as §1

HDQ-P1 [27] = assay: as above
How it was run: as §1

MFM-223 [28] = assay: as above
How it was run: as §1

DU-4475 [29] = assay: as above
How it was run: as §1

CAL-148 [30] = assay: as above
How it was run: as §1

HCC1599 [31] = assay: as above
How it was run: as §1

BT-549 [32] = assay: as above
How it was run: as §1

MDA-MB-468 [33] = assay: as above
How it was run: as §1

BT-474 [34] = assay: as above
How it was run: as §1

MCF-10A [35] = assay: as above
How it was run: as §1

Hs578T [36] = assay: as above
How it was run: as §1

SMILES: Cc1c(Cn2c(C)nc3c(C(=O)O)cc(N4CCOCC4)cc32)cccc1C(F)(F)F (1000 nM)
- normalised response (CAL-51 [1]): 74.1%
- normalised response (CAL-85-1 [2]): 98.1%
- normalised response (HCC1143 [3]): 103%
- normalised response (MDA-MB-231 [4]): 100%
- normalised response (CAL-120 [5]): 99.8%
- normalised response (MDA-MB-436 [6]): 99.5%
- normalised response (MDA-MB-453 [7]): 93.1%
- normalised response (HCC1937 [8]): 94.4%
- normalised response (HDQ-P1 [9]): 105%
- normalised response (MFM-223 [10]): 104%
- normalised response (DU-4475 [11]): 95.1%
- normalised response (CAL-148 [12]): 101%
- normalised response (SK-BR-3): 106%
- normalised response (HCC1599 [13]): 117%
- normalised response (BT-549 [14]): 75.5%
- normalised response (MDA-MB-468 [15]): 80.9%
- normalised response (BT-474 [16]): 96.2%
- normalised response (MCF-10A [17]): 115%
- normalised response (Hs578T [18]): 103%
- normalised response (CAL-51 [19]): 100%
- normalised response (CAL-85-1 [20]): 104%
- normalised response (HCC1143 [21]): 119%
- normalised response (MDA-MB-231 [22]): 107%
- normalised response (CAL-120 [23]): 109%
- normalised response (MDA-MB-436 [24]): 107%
- normalised response (MDA-MB-453 [25]): 112%
- normalised response (HCC1937 [26]): 106%
- normalised response (HDQ-P1 [27]): 115%
- normalised response (MFM-223 [28]): 105%
- normalised response (DU-4475 [29]): 111%
- normalised response (CAL-148 [30]): 107%
- normalised response (HCC1599 [31]): 92.3%
- normalised response (BT-549 [32]): 111%
- normalised response (MDA-MB-468 [33]): 125%
- normalised response (BT-474 [34]): 102%
- normalised response (MCF-10A [35]): 110%
- normalised response (Hs578T [36]): 105%

SMILES: CS(=O)(=O)N1CCN(Cc2cc3nc(-c4cccc5[nH]ncc45)nc(N4CCOCC4)c3s2)CC1 [Pictilisib] (1000 nM)
- normalised response (CAL-51 [1]): 57.4%
- normalised response (CAL-85-1 [2]): 63.5%
- normalised response (HCC1143 [3]): 68%
- normalised response (MDA-MB-231 [4]): 70.5%
- normalised response (CAL-120 [5]): 64.9%
- normalised response (MDA-MB-436 [6]): 72.7%
- normalised response (MDA-MB-453 [7]): 38.6%
- normalised response (HCC1937 [8]): 73.9%
- normalised response (HDQ-P1 [9]): 47.1%
- normalised response (MFM-223 [10]): 66.5%
- normalised response (DU-4475 [11]): 86.5%
- normalised response (CAL-148 [12]): 66.3%
- normalised response (SK-BR-3): 40.4%
- normalised response (HCC1599 [13]): 96.1%
- normalised response (BT-549 [14]): 58.7%
- normalised response (MDA-MB-468 [15]): 72.9%
- normalised response (BT-474 [16]): 69.4%
- normalised response (MCF-10A [17]): 38.4%
- normalised response (Hs578T [18]): 64.3%
- normalised response (CAL-51 [19]): 92.7%
- normalised response (HCC1143 [21]): 62.9%
- normalised response (MDA-MB-231 [22]): 99.3%
- normalised response (CAL-120 [23]): 100%
- normalised response (MDA-MB-436 [24]): 99.6%
- normalised response (MDA-MB-453 [25]): 96.7%
- normalised response (HCC1937 [26]): 126%
- normalised response (HDQ-P1 [27]): 87.1%
- normalised response (MFM-223 [28]): 76.8%
- normalised response (DU-4475 [29]): 98.3%
- normalised response (CAL-148 [30]): 53.4%
- normalised response (HCC1599 [31]): 103%
- normalised response (BT-549 [32]): 125%
- normalised response (MDA-MB-468 [33]): 45.4%
- normalised response (BT-474 [34]): 97.5%
- normalised response (MCF-10A [35]): 44.2%
- normalised response (Hs578T [36]): 108%

SMILES: CC(=O)OC[C@H]1O[C@@H]([S-])[C@H](OC(C)=O)[C@@H](OC(C)=O)[C@@H]1OC(C)=O.CCP(CC)CC.[Au+] [Auranofin] (250 nM)
- normalised response (CAL-51 [1]): 46.3%
- normalised response (CAL-85-1 [2]): 93.2%
- normalised response (HCC1143 [3]): 91.8%
- normalised response (MDA-MB-231 [4]): 101%
- normalised response (CAL-120 [5]): 99.4%
- normalised response (MDA-MB-436 [6]): 90.7%
- normalised response (MDA-MB-453 [7]): 90.7%
- normalised response (HCC1937 [8]): 87.4%
- normalised response (HDQ-P1 [9]): 101%
- normalised response (MFM-223 [10]): 98.5%
- normalised response (DU-4475 [11]): 102%
- normalised response (CAL-148 [12]): 101%
- normalised response (SK-BR-3): 99.8%
- normalised response (HCC1599 [13]): 112%
- normalised response (BT-549 [14]): 68.9%
- normalised response (MDA-MB-468 [15]): 18.5%
- normalised response (BT-474 [16]): 99%
- normalised response (MCF-10A [17]): 118%
- normalised response (Hs578T [18]): 97.4%
- normalised response (CAL-51 [19]): 80.4%
- normalised response (CAL-85-1 [20]): 120%
- normalised response (HCC1143 [21]): 123%
- normalised response (MDA-MB-231 [22]): 125%
- normalised response (CAL-120 [23]): 107%
- normalised response (MDA-MB-436 [24]): 109%
- normalised response (MDA-MB-453 [25]): 105%
- normalised response (HCC1937 [26]): 108%
- normalised response (HDQ-P1 [27]): 115%
- normalised response (MFM-223 [28]): 98.4%
- normalised response (DU-4475 [29]): 110%
- normalised response (CAL-148 [30]): 107%
- normalised response (HCC1599 [31]): 104%
- normalised response (BT-549 [32]): 103%
- normalised response (MDA-MB-468 [33]): 79.5%
- normalised response (BT-474 [34]): 95.5%
- normalised response (MCF-10A [35]): 115%
- normalised response (Hs578T [36]): 103%

SMILES: CCCCC/C=C/C=C1/C(=O)C=C[C@@H]1C/C=C\CCCC(=O)O [15D-PGJ2] (80 nM)
- normalised response (CAL-51 [1]): 123%
- normalised response (CAL-85-1 [2]): 96.2%
- normalised response (HCC1143 [3]): 104%
- normalised response (MDA-MB-231 [4]): 101%
- normalised response (CAL-120 [5]): 103%
- normalised response (MDA-MB-436 [6]): 98.5%
- normalised response (MDA-MB-453 [7]): 96.8%
- normalised response (HCC1937 [8]): 99.1%
- normalised response (HDQ-P1 [9]): 99.9%
- normalised response (MFM-223 [10]): 99.9%
- normalised response (DU-4475 [11]): 102%
- normalised response (CAL-148 [12]): 102%
- normalised response (SK-BR-3): 103%
- normalised response (HCC1599 [13]): 88.8%
- normalised response (BT-549 [14]): 99.1%
- normalised response (MDA-MB-468 [15]): 99.2%
- normalised response (BT-474 [16]): 101%
- normalised response (MCF-10A [17]): 111%
- normalised response (Hs578T [18]): 107%
- normalised response (CAL-51 [19]): 113%
- normalised response (CAL-85-1 [20]): 125%
- normalised response (HCC1143 [21]): 82.5%
- normalised response (MDA-MB-231 [22]): 86.6%
- normalised response (CAL-120 [23]): 108%
- normalised response (MDA-MB-436 [24]): 116%
- normalised response (MDA-MB-453 [25]): 113%
- normalised response (HCC1937 [26]): 123%
- normalised response (HDQ-P1 [27]): 111%
- normalised response (MFM-223 [28]): 101%
- normalised response (DU-4475 [29]): 110%
- normalised response (CAL-148 [30]): 103%
- normalised response (HCC1599 [31]): 109%
- normalised response (BT-549 [32]): 105%
- normalised response (MDA-MB-468 [33]): 155%
- normalised response (BT-474 [34]): 98.9%
- normalised response (MCF-10A [35]): 104%
